What was measured:
143B [1] = test: Antiproliferative activity against human 143B cells assessed as inhibition of cell proliferation incubated for 72 hrs by MTT assay; type: functional, cell-based
L02 = test: Cytotoxicity against human L02 cells assessed as reduction in cell viability incubated for 72 hrs by MTT assay; type: cell-based; conditions: L02, 72 h
[2] = molecular target: Glutathione S-transferase P (Homo sapiens, UniProt P09211); test: Inhibition of GSTP1-1 (unknown origin) using reduced GSH and CDNB as substrate incubated for 10 mins followed by substrate addition by microplate reader analysis
Sequence of Glutathione S-transferase P (P09211 whole entry): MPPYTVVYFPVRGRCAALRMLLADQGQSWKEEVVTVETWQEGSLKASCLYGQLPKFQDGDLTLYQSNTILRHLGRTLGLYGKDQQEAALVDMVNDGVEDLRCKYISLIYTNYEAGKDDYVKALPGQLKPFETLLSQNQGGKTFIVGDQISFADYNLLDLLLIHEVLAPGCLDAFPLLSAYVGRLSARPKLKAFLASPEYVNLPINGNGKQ

HUVEC = test: Cytotoxicity against HUVEC assessed as reduction in cell viability incubated for 72 hrs by MTT assay; type: cell-based; conditions: Homo sapiens
HOS = test: Antiproliferative activity against human HOS cells assessed as inhibition of cell proliferation incubated for 72 hrs by MTT assay; type: functional, cell-based
[3] = molecular target: T1, Glutathione S-transferase Mu 2 (Homo sapiens, UniProt P28161); test: Inhibition of GSTM2-2 (unknown origin) using reduced GSH and CDNB as substrate incubated for 10 mins followed by substrate addition by microplate reader analysis
T1 sequence (P28161 whole entry): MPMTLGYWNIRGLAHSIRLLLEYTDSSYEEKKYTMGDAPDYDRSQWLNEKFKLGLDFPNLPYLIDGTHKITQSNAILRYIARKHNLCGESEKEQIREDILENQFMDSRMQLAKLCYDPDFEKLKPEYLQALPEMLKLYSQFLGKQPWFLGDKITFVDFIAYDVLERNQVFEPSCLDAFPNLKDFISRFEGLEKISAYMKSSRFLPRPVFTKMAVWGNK

[4] = Antiproliferative activity against […] B16 cells assessed as inhibition of cell proliferation incubated for 72 hrs by MTT assay; type: functional, cell-based; conditions: B16, 72 h
A549 = test: Antiproliferative activity against human A549 cells assessed as inhibition of cell proliferation incubated for 72 hrs by MTT assay; type: functional, cell-based; conditions: A549, 72 h
143B [5] = test: Antitumor activity against human 143B cells xenografted in BALB/c nude mouse assessed as tumor growth inhibition at 5 mg/kg, po administered once daily for 28 consecutive days relative to control; type: functional; conditions: 672 h, time 28 day, read-out: TGI
[6] = Water solubility of the compound measured by UV-Visible spectral analysis; type: physicochemical; conditions: buffer

SMILES | IC50 (143B [1]) | IC50 (L02) | IC50 [2] | IC50 (HUVEC) | IC50 (HOS) | IC50 [3] | IC50 [4] | IC50 (A549) | inhibition in vivo at 5 mg/kg (143B [5]) | solubility [6]
COc1ccccc1NC(=O)CCC(=O)OCCCCCCSc1ccc([N+](=O)[O-])c2nonc12 | 2.12 µM | 4.49 µM | 4.05 µM | 1.61 µM | 2.85 µM | 0.28 µM | 1.38 µM | 1.87 µM | – | –
Cc1ccc(NC(=O)CCC(=O)OCCCCCCSc2ccc([N+](=O)[O-])c3nonc23)cc1 | 3.25 µM | 7.32 µM | 6.8 µM | 2.34 µM | 3.34 µM | 0.39 µM | 1.95 µM | 5.24 µM | – | –
O=C(CCC(=O)OCCCCCCSc1ccc([N+](=O)[O-])c2nonc12)Nc1ccccc1F | 3.03 µM | 4.27 µM | 9.89 µM | 0.84 µM | 2.35 µM | 0.35 µM | 2.12 µM | 2.44 µM | – | –
O=C(CCC(=O)OCCCCCCSc1ccc([N+](=O)[O-])c2nonc12)Nc1ccccc1 | 3.85 µM | 6.49 µM | 10.2 µM | 2.49 µM | 2.12 µM | 0.7 µM | 1.26 µM | 1.96 µM | – | –
O=C(CCC(=O)OCCCCCCSc1ccc([N+](=O)[O-])c2nonc12)Nc1ccccc1Cl | 2.43 µM | 5.85 µM | 15.5 µM | 2.95 µM | – | 0.33 µM | 2.39 µM | 2.75 µM | – | –
O=[N+]([O-])c1ccc(SCCCCCCO)c2nonc12 | 4.08 µM | – | – | – | 1.24 µM | 0.02 µM | 1.35 µM | 2.88 µM | 38.6% | –
COc1ccc(NC(=O)CCC(=O)OCCCCCCSc2ccc([N+](=O)[O-])c3nonc23)cc1 | 3.06 µM | 8.17 µM | 0.42 µM | 1.59 µM | 1.8 µM | 0.13 µM | 2.87 µM | 6.48 µM | – | –
O=C(CCC(=O)OCCCCCCSc1ccc([N+](=O)[O-])c2nonc12)Nc1cccc(Cl)c1 | 2.89 µM | 6.93 µM | 28.8 µM | 1.09 µM | 1.92 µM | 1.1 µM | 3.11 µM | 5.29 µM | – | –
O=C(CCC(=O)N1CCOCC1)OCCCCCCSc1ccc([N+](=O)[O-])c2nonc12 | 1.53 µM | 3.24 µM | 0.33 µM | 5.34 µM | 1.01 µM | 0.17 µM | 0.82 µM | 1.67 µM | – | –
O=C(CCC(=O)OCCCCCCSc1ccc([N+](=O)[O-])c2nonc12)Nc1ccc(C(F)(F)F)cc1 | 2.1 µM | 5.01 µM | 5.05 µM | 1.39 µM | 3.2 µM | 0.09 µM | 1.12 µM | 4.02 µM | – | –
O=C(CCC(=O)OCCCCCCSc1ccc([N+](=O)[O-])c2nonc12)Nc1ccc(F)c(Cl)c1 | 2.99 µM | 4.57 µM | 9.85 µM | 2.32 µM | 2.8 µM | 0.47 µM | 4.17 µM | 3.21 µM | – | –
O=C(CCC(=O)N1CCCCC1)OCCCCCCSc1ccc([N+](=O)[O-])c2nonc12 | 1.9 µM | 3.97 µM | 0.5 µM | 1.99 µM | 1.79 µM | 0.11 µM | 0.86 µM | 2.51 µM | – | –
O=C(CCC(=O)OCCCCCCSc1ccc([N+](=O)[O-])c2nonc12)Nc1ccc(Br)cc1 | 2.71 µM | 4.33 µM | 5.09 µM | 1.61 µM | 2.16 µM | 32 µM | 2.64 µM | 3.34 µM | – | –
O=C(CCC(=O)OCCCCCCSc1ccc([N+](=O)[O-])c2nonc12)Nc1ccc(F)cc1 | 2.5 µM | 6.46 µM | 8.57 µM | 1.74 µM | 2.08 µM | 0.32 µM | 2.02 µM | 6.3 µM | – | –
Cc1ccccc1NC(=O)CCC(=O)OCCCCCCSc1ccc([N+](=O)[O-])c2nonc12 | 4.66 µM | 9.49 µM | 4.1 µM | 1.41 µM | 4.02 µM | 0.44 µM | 6.49 µM | 4.2 µM | – | –
CN(C)CCNC(=O)CCC(=O)OCCCCCCSc1ccc([N+](=O)[O-])c2nonc12 | 2.19 µM | 5.98 µM | 0.54 µM | 2.16 µM | 5.02 µM | 0.16 µM | 1.14 µM | 5.55 µM | – | Soluble
O=C(O)CCC(=O)OCCCCCCSc1ccc([N+](=O)[O-])c2nonc12 | 2.83 µM | 1.89 µM | 0.53 µM | 0.74 µM | 8.74 µM | 0.16 µM | 3.65 µM | 3.64 µM | – | –
O=C(CCC(=O)OCCCCCCSc1ccc([N+](=O)[O-])c2nonc12)NCCN1CCCC1 | 5.58 µM | 6.58 µM | 0.46 µM | 6.07 µM | 3.3 µM | 0.2 µM | 3.5 µM | 3.24 µM | – | Soluble
COc1ccc(NC(=O)CCC(=O)OCCCCCCSc2ccc([N+](=O)[O-])c3nonc23)cc1OC | 2.77 µM | 4.1 µM | 6.47 µM | 0.87 µM | 1.39 µM | 0.36 µM | 2.35 µM | 3.89 µM | – | –
O=C(CCC(=O)OCCCCCCSc1ccc([N+](=O)[O-])c2nonc12)NCCN1CCOCC1 | 2.82 µM | 3.01 µM | 35 µM | 1.07 µM | 1.81 µM | 0.1 µM | 1.8 µM | 2.15 µM | – | Soluble
CCN(CC)CCCNC(=O)CCC(=O)OCCCCCCSc1ccc([N+](=O)[O-])c2nonc12 | 3.44 µM | 6.77 µM | 9.55 µM | 2.95 µM | 9.06 µM | 0.44 µM | 2.94 µM | 2.57 µM | – | Soluble

— ChEMBL document CHEMBL4732174, “Discovery of 6-(7-Nitro-2,1,3-benzoxadiazol-4-ylthio)hexanol Derivatives as Glutathione Transferase Inhibitors with Favorable Selectivity and Tolerated Toxicity” (J Med Chem, 2021)
